Reference: patent US10959966B2, “Compositions and methods for modulating HEXM1 expression” (CASE WESTERN RESERVE UNIVERSITY, priority 2014, dated 2021)

Columns and labels:
[1] = tested on: HEXIM1 expression in LNCaP prostate cancer cells; assay: HEXIM1 expression by western blot in LNCaP cells treated with HMBA analogs; type: cell-based; details: LNCaP cells, 24 h, western blot normalized to β-actin; for HEXIM1 expression induction at lower concentration: analogs at 100 μM; for HEXIM1 expression compared to the vehicle treatment (cutoff 2.5 fold): analogs at 500 μM
Method: FIGS. 2(A-B) illustrate Western blots and a graph showing the effect of HMBA analogs on HEXIM1 expression. LNCaP cells were treated with vehicle, HMBA (5 mM) and its analogs at 500 μM for 24 h. Level of HEXIM1 (upper panel) and β-actin (lower panel) was analyzed by Western blot of cell extracts with HEXIM1 antibody and β-actin antibody respectively. The bands of HEXIM1 were quantified using ImageJ (NIH) and normalized to β-actin. The results are the representative of three independent experiments.
FIGS. 3(A-B) illustrate Western blots and a graph showing lower concentration of HMBA analogs on HEXIM1 expression. LNCaP cells were treated with vehicle, HMBA (5 mM) and identified analogs at 100 μM for 24 h. Level of HEXIM1 (upper panel) and β-actin (lower panel) was analyzed by Western blot of cell extracts with HEXIM1 antibody and β-actin antibody respectively. The bands of HEXIM1 were quantified using ImageJ (NIH) and normalized to β-actin. The results are the representative of three independent experiments.
FIGS. 4(A-B) illustrate Western blots and a graph showing dose-dependent study of compound 4a1 and HMBA on HEXIM1 expression. Level of HEXIM1 (upper panel) and β-actin (lower panel) was analyzed by Western blot of cell extracts with HEXIM1 antibody and β-actin antibody respectively.
HMBA analogs described herein can be synthesized based on the HMBA scaffold and then selected for their ability to induce HEXIM1 expression in an in vitro cell assay. For example, the synthesized HMBA analogs can be administered to cells, such as LNCaP prostate cancer cells, and the level of HEXIM1 in such cells can be measured using western blot analyses. The level of HEXIM1 expression of cells that are treated with a potential HMBA analog can be compared to control cells treated without the HMBA analog or with HMBA. Control cells (untreated or treated with HMBA) can be assigned a relative HEXIM1 expression value. Induction or promotion of HEXIM1 expression is achieved when the HEXIM1 expression relative to the control is increased at least about 1%, 5%, 10%, 15%, 20%, 30%, 50%, 75%, 100%, 200%, or more.
The synthesis of the symmetrical and unsymmetrical derivatives is described in Scheme 1 and 2, respectively. For the symmetrical analogs, moieties A and C were kept identical. Besides the acetyl group of HMBA, methanesulfonyl group, propionyl group or butyryl group were introduced. In addition, a bulky benzoyl group was introduced. The active proton in the amide moiety was replaced with methyl group to generate a series of analogs with lower solubility. For the moiety B, various linkers such as 1,3-propylene, […] 1,4-cyclohexylene, 1,4-phenylene-bis(methylene), 1,4-cyclohexylene-bis(methylene) were tested for optimization. For the unsymmetrical analogs, the A and B moieties were kept the same as HMBA while the C moiety was modified with aryl or alkyl amide. A total of 32 compounds were synthesized, and these compounds were examined for their potency to induce HEXIM1 in LNCaP prostate cancer cells. HMBA (5 mM) was used as a positive control.
(§1) Therefore, these three compounds were screened at lower concentrations.

[2] = tested on: LNCaP cells; assay: Cell morphology after treatment, to exclude compounds causing cell toxicity; details: 500 μM
Description: Cell morphology was examined after the treatment to exclude compounds that caused cell toxicity.

[3] = Precipitation of compounds in cell culture; type: physicochemical; details: 500 μM
Method: as §1
Some compounds were further evaluated at a lower concentration of 100 μM (FIG. 3). […] The variation in potency could be due to the precipitation of the two compounds at 500 μM, which hampers cell penetration. […] Due to the unsymmetrical structural characteristic of 4a1, a dose-dependent study was performed and the results are presented in FIG. 4.

For `CCC(=O)NCCCCCCNC(=O)CC` [Compound 2a4], the “HEXIM1 expression induction at lower concentration” value [1] was “reduced activity”.

For `CCCC(=O)NCCCCCCNC(=O)CCC` [Compound 2a5], the “HEXIM1 expression induction at lower concentration” value [1] was “reduced activity”.

For `CC(=O)NCC1CCC(CNC(C)=O)CC1` (stereo not shown) [Compound 2c1], the “HEXIM1 expression compared to the vehicle treatment (cutoff 2.5 fold)” value (from here on “HEXIM1 expression … (cutoff 2.5 fold)”) [1] was “reached this cutoff” and the “Cell morphology after the treatment” value [2] was “cell morphology slightly changed”.

For `CC(=O)NC1CCC(NC(C)=O)CC1` (stereo not shown) [Compound 2d1], the “HEXIM1 expression induction at lower concentration” value [1] was “not able to induce HEXIM1 expression”.

For `CS(=O)(=O)NCCCNS(C)(=O)=O` [Compound 2f2], the “HEXIM1 expression induction at lower concentration” value [1] was “not able to induce HEXIM1 expression”.

For `CN(CCCCCCN(C)S(C)(=O)=O)S(C)(=O)=O` [Compound 3a2], the “HEXIM1 expression induction at lower concentration” value [1] was “significant activity”, the “HEXIM1 expression … (cutoff 2.5 fold)” value [1] was “did not reach the cutoff” and the “Precipitation during the treatment” value [3] was “precipitation”.

In the case of `CC(=O)N(C)Cc1ccc(CN(C)C(C)=O)cc1` [Compound 3b1], the “HEXIM1 expression induction at lower concentration” value [1] is reported as 3.8 fold.

With `CN(Cc1ccc(CN(C)S(C)(=O)=O)cc1)S(C)(=O)=O` [Compound 3b2] the “HEXIM1 expression induction at lower concentration” value [1] was 2 fold.

For `CN(CC1CCC(CN(C)S(C)(=O)=O)CC1)S(C)(=O)=O` (stereo not shown) [Compound 3c2], the “HEXIM1 expression induction at lower concentration” value [1] was “not able to induce HEXIM1 expression”.

In the case of `CC(=O)N(C)C1CCC(N(C)C(C)=O)CC1` (stereo not shown) [Compound 3d1], the “HEXIM1 expression induction at lower concentration” value [1] is reported as “not able to induce HEXIM1 expression”.

For `CN(C1CCC(N(C)S(C)(=O)=O)CC1)S(C)(=O)=O` (stereo not shown) [Compound 3d2], the “HEXIM1 expression induction at lower concentration” value [1] was “significant activity”, the “HEXIM1 expression … (cutoff 2.5 fold)” value [1] was “did not reach the cutoff” and the “Precipitation during the treatment” value [3] was “precipitation”.

In the case of `CN(CCCN(C)S(C)(=O)=O)S(C)(=O)=O` [Compound 3f2], the “HEXIM1 expression induction at lower concentration” value [1] is reported as “not able to induce HEXIM1 expression”, the “HEXIM1 expression … (cutoff 2.5 fold)” value [1] is reported as “did not reach the cutoff” and the “Precipitation during the treatment” value [3] is reported as “precipitation”.

With `COc1ccc(C(=O)NCCCCCCNC(C)=O)cc1` [Compound 4a3] the “HEXIM1 expression … (cutoff 2.5 fold)” value [1] was “reached this cutoff”.

In the case of `CC(=O)NCCCCCCNC(=O)c1ccc(-c2ccccc2)cc1` [Compound 4a4], the “HEXIM1 expression induction at lower concentration” value [1] is reported as “not able to induce HEXIM1 expression” and the “HEXIM1 expression … (cutoff 2.5 fold)” value [1] is reported as “did not reach the cutoff”.
